Experimental data from US20240238422A1 (Osprey Biopharmaceuticals, Inc., priority 2021, published 2024).
Entries after “also recorded” stand apart in the source; their conditions may differ.

What was measured:
C57BL/6 mice [1] = assay: Serum IgG response to hen egg white lysozyme (HEL) in mice; format: in vivo, mouse; settings: Example 20: 4 weekly 200 μg i.v. doses (days 0, 7, 14, and 21), day 27
Method: On study day −1, animals were randomized into treatment groups based on body weight. On study day 0, animals were bled for baseline serum and then injected IV with adalimumab, adalimumab-Siglec Ligand conjugate, or PBS vehicle. The individual adalimumab-based antigens were prepared by making a 0.8 mg/ml antigen solution in sterile buffered saline. Animals were then injected with 0.1 ml (^˜4 ml/kg) of the 0.8 mg/ml antigen via the tail vein. The total dose based on a 20 g mouse would be 4 mg/kg. Mice were subsequently administered 200 μg HEL on days 7, 14, and 21. Whole blood was collected into Microvette EDTA capillary collection tubes (Sarstedt Inc) and then further processed following the manufacturer's instructions for serum collection. Samples were stored at −80 C until analysis was performed.
(§1) ADA assays were performed on 96-well assay plates (Nunc Plates, Black 96-Well Immuno Plates, Thermo Scientific, 437111) coated with antigen as follows. […] The excitation and emission settings for the QuantaBlu Fluorogenic Peroxide Substrates are 325 nm and 420 nm and the relative florescence units were measured using a SpectraMax plate reader. […] Titers were determined by the dilution of serum that gives a 2× OD above background.
On study day −1, animals were randomized into treatment groups based on body weight. […] Serum IgG levels against HEL/HEL conjugate were measured at day 27. […]

Human TNFα = Human TNFα (Homo sapiens, UniProt P01375); assay: TNFα - Adalimumab/Adalimumab-Siglec Ligand Conjugate SPR Binding Assays; settings: TNFα analyte, test article on Protein A chip, 1:1 binding model
Sequence of Human TNFα (P01375 77-233 limits assumed): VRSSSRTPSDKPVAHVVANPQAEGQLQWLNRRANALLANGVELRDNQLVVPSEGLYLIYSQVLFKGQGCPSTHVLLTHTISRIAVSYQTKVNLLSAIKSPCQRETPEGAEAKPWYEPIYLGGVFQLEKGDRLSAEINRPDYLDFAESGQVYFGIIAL
Method: Binding experiments of Adalimumab Conjugates were performed on a Biacore 8K+ using a Cytiva Protein A Chip Series S (Cat #29127555). Briefly, conjugates were diluted in running buffer (HBS-EP+) and scouted for a concentration yielding about 30 RU of response after 20 seconds of injection at 30 μL/min on the active surface (flow cell 2). Human TNFα was serially diluted in running buffer 1:1 from 100 nM to 0.1953 nM and then injected across both the reference (flow cell 1) and active surface (flow cell 2) for 120 seconds at 30 μL/min and allowed to dissociate for 600 s. […] Sensorgrams were fitted to a 1:1 binding model in Biacore Insight Evaluation Software Version 3.0.11.15423.

C57BL/6 mice [2] = assay: Anti-drug antibody (serum IgG titer) response to adalimumab and conjugates in mice; format: in vivo, mouse
Method: To evaluate the production of antibodies specific to adalimumab and/or adalimumab-Siglec Ligand conjugates, C57BL/6 mice were immunized through intravenous injection with adalimumab or Siglec Ligand-conjugated adalimumab. On study day −1, animals were randomized into treatment groups based on body weight. On study day 0, animals were bled for baseline serum and then injected IV with adalimumab or the adalimumab-Siglec Ligand conjugates. The individual antigens were prepared by making a 0.8 mg/ml antigen solution in sterile buffered saline. Animals were then injected with 0.1 ml (^˜4 ml/kg) of the 0.8 mg/ml antigen via the tail vein. The total dose based on a 20 g mouse would be 4 mg/kg. Animals were bled via the retro-orbital sinus weekly throughout the study under inhaled isoflurane anesthesia. On study day, 28 animals were anesthetized with inhaled isoflurane anesthesia and then bled via cardiac puncture and then sacrificed by cervical dislocation. […]
as §1, with “antigen,” for “antigen”, “background. […]” for “background.”

Substance | IgG response to HEL/HEL conjugate (immunogenicity) (C57BL/6 mice [1]) | Kd (Human TNFα) [nM] | Rmax (RU) (Human TNFα) | ka (Human TNFα) [M⁻¹ s⁻¹] | kd (Human TNFα) [s⁻¹] | anti-drug antibody response (mouse serum IgG titer against adalimumab/adalimumab conjugates) (C57BL/6 mice [2]; Example 14: single 4 mg/kg i.v. dose, days 14, 21, and 28, GAL and PEG linkers, listed as adalimumab hIgG1, 4 mg/kg) | IgG response against adalimumab/adalimumab conjugate (C57BL/6 mice [2]; Example 19: 4 mg/kg day 0, then weekly 200 μg HEL, day 28)
HEL: hen egg white lysozyme (Sigma, L4919-1G), standard immunogen [reference compound] | vigorous IgG responses to HEL |  |  |  |  |  | 
Siglec Ligand-HEL conjugates: hen egg white lysozyme conjugated with monovalent BPC-Neu5Gc PEG ligand-linker, LDR of 1.6 | completely suppressed for immunogenicity |  |  |  |  |  | 
Adalimumab |  | 1.46 | 10.6 | 245000 | 0.000357 | highly immunogenic in mice; also recorded: high mouse IgG serum titers | strong IgG response
